Ten compounds from patent US7846935B2, “Furo[3,2-B]pyrrol-3-one derivatives and their use as cysteinyl proteinase inhibitors” (Amura Therapeutics Limited, priority 2006, dated 2010) can be followed below.

Data set [1] in a line: Liver microsomal incubations. Format: in vitro ADME. The note with it: human liver microsomes, 25 μM, NADPH. For orientation: Liver microsomes are a subcellular fraction often used to study metabolism.
Procedure: All liver microsome incubations were carried out in 50 mM potassium phosphate buffer at pH 7.4, with a final microsomal protein concentration of 0.5 mg/mL. […] In brief, compounds were added to the incubation buffer along with the liver microsomes and incubated at 37° C. for 10 minutes. The reaction was then initiated by the addition of NADPH, previously dissolved in incubation buffer, to give a final concentration of 1 mM and re-incubated at 37° C. Aliquots were removed at 2 and 60 minutes and quenched with an equal volume of cold acetonitrile. After mixing vigorously, the precipitated protein matter was removed by filtration (Multiscreen Solvinert filter plates, Millipore, Bedford, Mass., USA) and the filtrate analysed by reverse phase HPLC with mass spectrometric detection, using single ion monitoring of the [M+H]^+ species. Metabolic turnover was determined by comparison of peak areas from the ion chromatograms of the parent compound at 2 and 60 minutes and expressed as percent remaining at 1 hour.
Data set [2] in a line: Plasma incubations. The data set is classed as in vitro ADME. The following applies: 37° C., 25 μM.
Procedure: Aliquots were removed at 2 and 60 minutes and quenched with an equal volume of cold acetonitrile. After mixing vigorously, the precipitated protein matter was removed by filtration (Multiscreen Solvinert filter plates, Millipore, Bedford, Mass., USA) and the filtrate analysed by reverse phase HPLC with mass spectrometric detection, using single ion monitoring of the [M+H]^+ species. Metabolic turnover was determined by comparison of peak areas from the ion chromatograms of the parent compound at 2 and 60 minutes and expressed as percent remaining at 1 hour.
Data set [3] deals with human osteoclasts. Put plainly: Human osteoclast resorption assay. Format: cell-based. On the procedure:
Bone resorption was studied using a model where human osteoclast precursor cells were cultured on bovine bone slices for 9 days and allowed to differentiate into bone-resorbing osteoclasts. The formed mature osteoclasts were then allowed to resorb bone. The assay was performed by Pharmatest Services Ltd, Itainen Pitkakatu 4C, Turku, Finland. After the culture period, bone collagen degradation products were quantified from the culture medium as an index of bone resorption. Inhibitor compounds were added into the cell cultures after the differentiation period and their effects on the resorbing activity of mature osteoclasts were determined. The studies included a baseline group without added compounds and a positive control group where a potent cathepsin K inhibitor E-64 was added.
Human peripheral blood monocytes were suspended to culture medium and allowed to attach to bovine bone slices. The bone slices were transferred into 96-well tissue culture plates containing culture medium with appropriate amounts of important growth factors favouring osteoclast differentiation, including M-CSF, RANK-ligand and TGF-β. The cells were incubated in a CO2 incubator in humidified atmosphere of 95% air and 5% carbon dioxide at 37° C. At day 7 when osteoclast differentiation was complete, the culture medium was replaced with culture medium containing conditions favouring osteoclast activity. The cell culture was continued for an additional 2 days, during which the formed mature osteoclasts were allowed to resorb bone in the presence of vehicle, control inhibitor (E64) or test compounds. At the end of the culture, bone collagen degradation products released into the culture medium were determined using a commercially available ELISA method (CrossLaps® for culture, Nordic Bioscience, Herlev, Denmark) as an index of bone resorption (see Bagger, Y. Z. et al, J. Bone. Miner. Res. 14 (suppl. 1), S370).

Data set [4] deals with T1, Human recombinant cathepsin K (Homo sapiens, UniProt P43235).
T1 construct: B. Turk, Josef, Stefan Institute, Ljubljana, Slovenia
T1 sequence (P43235 115-329): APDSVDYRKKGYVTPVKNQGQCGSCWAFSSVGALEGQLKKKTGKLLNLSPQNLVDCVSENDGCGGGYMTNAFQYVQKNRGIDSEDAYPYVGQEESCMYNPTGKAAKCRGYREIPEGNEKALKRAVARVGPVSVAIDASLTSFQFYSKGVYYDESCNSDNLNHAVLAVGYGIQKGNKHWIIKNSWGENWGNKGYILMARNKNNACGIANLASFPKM
Put plainly: In vitro cathepsin Ki inhibition measurements. Format: biochemical. The note with it: Table 1, read-out: In vitro Ki (nM) vs Cath K. On the procedure: Stock solutions of substrate or inhibitor were made up to 10 mM in 100% dimethylsulfoxide (DMSO) (Rathburns, Glasgow, U.K.) and diluted as appropriately required. In all cases the DMSO concentration in the assays was maintained at less than 1% (vol./vol.). The equilibrium inhibition constants (Ki^ss) for each compound were measured under steady-state conditions monitoring enzyme activity as a function of inhibitor concentration. The values were calculated on the assumption of pure competitive behaviour (Cornish-Bowden, A. Fundamentals of enzyme kinetics Portland Press; 1995, 93-128). Human recombinant cathepsin K (0.25 nM final; B. Turk, Josef, Stefan Institute, Ljubljana, Slovenia), was routinely assayed in 100 mM sodium acetate; pH 5.5 containing 1 mM EDTA, 10 mM L-cysteine and 1.8 μM Z-Leu-Arg-AMC ([S]=KM).
The apparent inhibition constant (Ki) for each compound was determined on the basis that inhibition was reversible and occurred by a pure-competitive mechanism. The Ki values were calculated, from the dependence of enzyme activity as a function of inhibitor concentration, by direct regression analysis (Prism v 3.02) using Equation 2 (Cornish-Bowden, A., 1995).
In situations where the apparent dissociation constant (Ki^app) approached the enzyme concentrations, the Ki^app values were calculated using a quadratic solution in the form described by Equation 3 (Morrison, J. F. Trends Biochem. Sci., 7, 102-105, 1982; Morrison, J. F. Biochim. Biophys. Acta, 185, 269-286, 1969; Stone, S. R. and Hofsteenge, J. Biochemistry, 25, 4622-4628, 1986).
Curves were fitted by non-linear regression analysis (Prism) using a fixed value for the enzyme concentration. Equation 4 was used to account for the substrate kinetics, where ‘Ki’ is the inhibition constant, ‘[So]’ is the initial substrate concentration and ‘KM^app’ is the apparent macroscopic binding (Michaelis) constant for the substrate (Morrison, 1982).

Data set [5] is described as follows: LogD determinations. The data set is classed as physicochemical. The following applies: 1-octanol/PBS; PBS pH 7.4/1-octanol, ion-count method.
Procedure: LogD(PBS) determinations were performed in 96 well microtitre plates using a miniaturised “shake-flask” method. […] The plates were then capped and mixed vigorously for 1 hour on a microtitre plate shaker, after which they were left to stand, allowing the PBS and octanol phases to separate. The PBS layer was analysed by reverse phase HPLC with mass spectrometric detection, using single ion monitoring of the [M+H]^+ species.
Where AUCstd and AUCpbs are the peak areas from the standard and test ion chromatograms respectively.
Data set [6] concerns rat osteoclasts. In words: Rat osteoclast resorption assay. Format: cell-based. How it is done:
Bone resorption was studied using a model where mature osteoclasts derived from rat bone were cultured on bovine bone slices for 3 days and allowed to resorb bone in the presence of inhibitor, positive control (E-64) or vehicle. More specifically, tibia, femori and humeri were removed from 1 day old rat pups. The endosteal surfaces of the bones were scraped with a scapelto release osteoclasts into the culture medium and the osteoclasts were allowed to attach to bovine bone slices. After the culture period, bone collagen degradation products were quantified from the culture medium as an index of bone resorption. The assay was performed by Pharmatest Services Ltd, Itäinen Pitkakatu 4C, Turku, Finland.

Where [7] appears, read: human osteoclast bone resorption, read-out: Cell-based % Inh. @ 1 μM Human.
The mark [8] stands for this setting: human osteoclast, read-out: inhibition of human osteoclast activity.
The mark [9] stands for this setting: 1 μM, rat osteoclast bone resorption, read-out: Cell-based % Inh. @ 1 μM Rat.
Setting [10] is: rat osteoclast, 1 μM per table 1, read-out: rat osteoclast data (inhibition).

Structures are written as SMILES. Where two headings read alike, the source gives them in different places.

With `CC(C)C[C@H](NC(=O)c1ccc(N2CCN(C)CC2)cc1)C(=O)N1CC[C@H]2OCC(=O)[C@H]21` [EXAMPLE 1, 4-(4-methylpiperazin-1-yl)-N—((S)-4-methyl-1-oxo-1-((3aS,6aR)-3-oxodihydro-2H-furo[3,2-b]pyrrol-4(5H,6H,6aH)-yl)pentan-2-yl)benzamide, reference compound], the “HLM % rem. @ 1 h” value in data set [1] was 95%. Also, the “Human Plasma Stability % rem. @ 1 h” value in data set [2] worked out at 95%. For the same compound, in data set [3] (setting [7]), the inhibition at 1 µM was found to be 55%.
Usually Ki stands for a dissociation constant, usually derived from enzyme kinetics or from competition with a known ligand. In general, logD refers to the decadic logarithm of the distribution of all forms, ionised or not, between an organic phase and buffer at a given pH. Read a high logD as higher lipophilicity. As to `CCN1CCN(c2ccc(C(=O)N[C@@H](CC(C)C)C(=O)N3CC[C@H]4OCC(=O)[C@H]43)cc2)CC1` [EXAMPLE 2, 4-(4-ethylpiperazin-1-yl)-N—((S)-4-methyl-1-oxo-1-((3aS,6aR)-3-oxodihydro-2H-furo[3,2-b]pyrrol-4(5H,6H,6aH)-yl)pentan-2-yl)benzamide], the “HLM % rem. @ 1 h” value in data set [1] was 88%. For the same compound, the Ki in data set [4] came out at 15 nM. Besides, the “Human Plasma Stability % rem. @ 1 h” value in data set [2] was found to be 93%. The figures for the inhibition at 1 µM in data set [3] (setting [7]), in data set [3] (setting [8]) and in data set [6] (setting [9]) were 58%, 58% and 40%, respectively. Further, the logD in data set [5] turned out to be 0.74.
Take `CCCN1CCN(c2ccc(C(=O)N[C@@H](CC(C)C)C(=O)N3CC[C@H]4OCC(=O)[C@H]43)cc2)CC1` [EXAMPLE 3, N—((S)-4-methyl-1-oxo-1-((3aS,6aR)-3-oxo-dihydro-2H-furo[3,2-b]pyrrol-4(5H,6H,6aH)-yl)pentan-2-yl)-4-(4-propylpiperazin-1-yl)benzamide]: the “HLM % rem. @ 1 h” value in data set [1] is on record as 83%. Also, the Ki in data set [4] was determined as 18 nM. Further, the “Human Plasma Stability % rem. @ 1 h” value in data set [2] was found to be 89%. Besides, the inhibition at 1 µM in data set [3] (setting [7]) was 73%; in data set [3] (setting [8]), 73 to 82%; in data set [6] (setting [9]) it was 65%; in data set [6] (setting [10]) it was 65%. This compound also gave a logD in data set [5] of 1.66.
On to `CC(C)C[C@H](NC(=O)c1ccc(N2CCN(C(C)C)CC2)cc1)C(=O)N1CC[C@H]2OCC(=O)[C@H]21` [EXAMPLE 4, 4-(4-isopropylpiperazin-1-yl)-N—((S)-4-methyl-1-oxo-1-((3aS,6aR)-3-oxodihydro-2H-furo[3,2-b]pyrrol-4(5H,6H,6aH)-yl)pentan-2-yl)benzamide], for which, in data set [1], the “HLM % rem. @ 1 h” value was determined as 88%. Moreover, the Ki in data set [4] was determined as 19 nM. Also, the “Human Plasma Stability % rem. @ 1 h” value in data set [2] came out at 91%. Also, the inhibition at 1 µM in data set [3] (setting [7]) was 74%; in data set [3] (setting [8]), 73 to 82%; in data set [6] (setting [9]), 25%; in data set [6] (setting [10]), 25%. Besides, the logD in data set [5] was determined as 1.21.
For `COCCN1CCN(c2ccc(C(=O)N[C@@H](CC(C)C)C(=O)N3CC[C@H]4OCC(=O)[C@H]43)cc2)CC1` [EXAMPLE 5, 4-(4-(2-methoxyethyl)piperazin-1-yl)-N—((S)-4-methyl-1-oxo-1-((3aS,6aR)-3-oxodihydro-2H-furo[3,2-b]pyrrol-4(5H,6H,6aH)-yl)pentan-2-yl)benzamide], in data set [1], the “HLM % rem. @ 1 h” value is reported as 90%. Moreover, the Ki in data set [4] came out at 29 nM. Besides, the “Human Plasma Stability % rem. @ 1 h” value in data set [2] is listed as 98%. Besides, the inhibition at 1 µM in data set [3] (setting [7]) worked out at 57%; in data set [3] (setting [8]) it was 57%; in data set [6] (setting [9]) it was 65%; in data set [6] (setting [10]), 65%. In data set [5], this compound displayed a logD of 0.9.
On to `CC(C)C[C@H](NC(=O)c1ccc(N2CCN(C3CC3)CC2)cc1)C(=O)N1CC[C@H]2OCC(=O)[C@H]21` [EXAMPLE 6, 4-(4-cyclopropylpiperazin-1-yl)-N—((S)-4-methyl-1-oxo-1-((3aS,6aR)-3-oxodihydro-2H-furo[3,2-b]pyrrol-4(5H,6H,6aH)-yl)pentan-2-yl)benzamide], for which, in data set [1], the “HLM % rem. @ 1 h” value was found to be 83%. Besides, in data set [4], the Ki came to 4 nM. In addition, in data set [2], the “Human Plasma Stability % rem. @ 1 h” value is on record as 93%. The inhibition at 1 µM was 74% in data set [3] (setting [7]), 73 to 82% in data set [3] (setting [8]), 22% in data set [6] (setting [9]) and 22% in data set [6] (setting [10]). Further, the logD in data set [5] was 1.88.
On to `CC(C)C[C@H](NC(=O)c1ccc(N2CCN(C3CCC3)CC2)cc1)C(=O)N1CC[C@H]2OCC(=O)[C@H]21` [EXAMPLE 7, 4-(1-cyclobutylpiperazin-4-yl)-N—((S)-4-methyl-1-oxo-1-((3aS,6aR)-3-oxodihydro-2H-furo[3,2-b]pyrrol-4(5H,6H,6aH)-yl)pentan-2-yl)benzamide], for which, in data set [1], the “HLM % rem. @ 1 h” value is 81%. Further, the Ki in data set [4] is 3 nM. Moreover, in data set [2], the “Human Plasma Stability % rem. @ 1 h” value was determined as 92%. The inhibition at 1 µM in data set [3] (setting [7]) was 82%; in data set [3] (setting [8]), 73 to 82%; in data set [6] (setting [9]) it was 40%; in data set [6] (setting [10]), 40%. In data set [5], this compound returned a pH-dependent lipophilicity (logD) of 1.88.
On to `COCCN1CCC(c2ccc(C(=O)N[C@@H](CC(C)C)C(=O)N3CC[C@H]4OCC(=O)[C@H]43)cc2)CC1` [EXAMPLE 8, 4-(1-(2-methoxyethyl)piperidin-4-yl)-N—((S)-4-methyl-1-oxo-1-((3aS,6aR)-3-oxodihydro-2H-furo[3,2-b]pyrrol-4(5H,6H,6aH)-yl)pentan-2-yl)benzamide], for which, in data set [1], the “HLM % rem. @ 1 h” value worked out at 88%. In addition, the Ki in data set [4] came to 36 nM. Also, the “Human Plasma Stability % rem. @ 1 h” value in data set [2] is 98%. Besides, the inhibition at 1 µM in data set [3] (setting [7]) was 23%; in data set [3] (setting [8]), 23%; in data set [6] (setting [9]), 52%; in data set [6] (setting [10]), 52%. The logD in data set [5] was determined as 0.61.
As for `CC(C)C[C@H](NC(=O)c1ccc(C2CCN(C3CC3)CC2)cc1)C(=O)N1CC[C@H]2OCC(=O)[C@H]21` [compound 9, 4-(1-cyclopropylpiperidin-4-yl)-N—((S)-4-methyl-1-oxo-1-((3aS,6aR)-3-oxodihydro-2H-furo[3,2-b]pyrrol-4(5H,6H,6aH)-yl)pentan-2-yl)benzamide], the “HLM % rem. @ 1 h” value in data set [1] is on record as 82%. For the same compound, in data set [4], the Ki is 8 nM. For the same compound, the “Human Plasma Stability % rem. @ 1 h” value in data set [2] was 93%. In data set [5], the logD came out at 1.99.
For `CC(C)C[C@H](NC(=O)c1ccc(C2CCN(C3CCC3)CC2)cc1)C(=O)N1CC[C@H]2OCC(=O)[C@H]21` [compound 10, 4-(1-cyclobutylpiperidin-4-yl)-N—((S)-4-methyl-1-oxo-1-((3aS,6aR)-3-oxodihydro-2H-furo[3,2-b]pyrrol-4(5H,6H,6aH)-yl)pentan-2-yl)benzamide], the “HLM % rem. @ 1 h” value in data set [1] worked out at 83%. Besides, the Ki in data set [4] came to 5 nM. The “Human Plasma Stability % rem. @ 1 h” value in data set [2] is recorded as 90%. The same compound came in with a logD in data set [5] of 0.95.
